Measured values: patent publication US6303630A, “Diarylsulfone non-nucleoside reverse transcriptase inhibitors of human immunodeficiency virus” (University of the Sciences in Philadelphia, priority 2000, dated 2001)
Where two headings read alike, the source gives them in different places.

Columns and labels:
[1] = tested on: HIV-1; assay: NCI in vitro anti-HIV drug screen: XTT-formazan assay, protection of T4 lymphocytes (CEM) from HIV-1 cytopathic effects; type: cell-based, human immunodeficiency virus (HIV-1); conditions: for EC50 / inhibition at 200 µM / inhibition at 20 µM / inhibition at 2 µM / inhibition at 0.2 µM / inhibition at 63.2 µM / inhibition at 6.33 µM / inhibition at 0.634 µM / inhibition at 0.0635 µM: Human immunodeficiency virus 1, CCRF-CEM; for EC50: 144 h, HIV-1 infected CEM cells, 6 days, XTT, approximate values, read-out: EC50 (50% effective concentration against HIV cytopathic effects); for inhibition at 200 µM / activity at 200 µM: dose 2.00 × 10^-4 Molar; for inhibition at 2 µM / activity at 2 µM: dose 2.00 × 10^-6 Molar; for inhibition at 0.2 µM / activity at 0.2 µM: dose 2.00 × 10^-7 Molar; for inhibition at 0.634 µM / activity at 0.634 µM: dose 6.34 × 10^-7 Molar; for inhibition at 0.0635 µM / activity at 0.0635 µM: dose 6.35 × 10^-8 Molar; for activity at 200 µM / activity at 20 µM / activity at 2 µM / activity at 0.2 µM / activity at 63.2 µM / activity at 6.33 µM / activity at 0.634 µM / activity at 0.0635 µM: Human immunodeficiency virus 1, Lymphocyte, read-out: Percent of Control, Infected; for TI50 (IC/EC), Therapeutic Index: IC50/EC50
Method: Compounds of the present invention were evaluated for anti-HIV efficacy by the National Cancer Institute's (NCI) In Vitro Anti AIDS Drug Discovery Program.
(§1) The NCI procedure is fully described, for example, in a bulletin provided by the National Institutes of Health, National Cancer Institute, Bethesda, Md. 20892, all of which is incorporated herein by reference. As related in the NCI bulletin, the procedure is based on O. W. Weislow et al., "New soluble-formazan assay for HIV-1 cytopathic effects: application to high flux screening of synthetic and natural products for AIDS-antiviral activity", J. Natl. Cancer Inst. 81:577-586 (1989), and is used to test for compounds active against human immunodeficiency virus (HIV), and is designed to detect compounds active at any stage of the virus reproductive cycle. As further related in the NCI bulletin, the assay includes killing of T4 lymphocytes by HIV. Amounts of HIV are added to cells, with a minimum of two cycles of virus reproduction found to be necessary to obtain the required cell killing. Compounds that interact with virions, cells, or virus gene-products to interfere with viral activities will protect cells from cytolysis. All were compared with a positive (e.g., AZT-treated) control evaluation at the same time under identical conditions. The procedure is set forth as follows:
(§2) A candidate compound is first dissolved in a suitable solvent, preferably dimethyl sulfoxide, then diluted 1:100 in cell culture medium before preparing serial half-log10 dilutions. T4 lymphocytes (CEM cell line) are then added and after a brief interval HIV-1 is added, resulting in a 1:200 final dilution of the compound. Uninfected cells with the compound serve as a toxicity control, and infected and uninfected without the compound serve as basic controls. Cultures are then incubated at 37° in a 5% carbon dioxide atmosphere for 6 days. The tetrazolium salt, XTT, is added to all wells, and cultures are incubated to allow formazan color development by viable cells. Individual wells are analyzed spectrophotometrically to quantitate formazan product, and in addition are viewed microscopically for detection of viable cells and confirmation of protective activity. Drug-treated virus-infected cells are compared with drug-treated noninfected cells and with other appropriate controls (untreated infected and untreated noninfected cells, drug-containing wells without cells, etc.) on the same plate. Data are reviewed in comparison with other tests performed at the same time and a determination as to activity is made.

[2] = tested on: T4 lymphocytes (CEM cell line); assay: Cell growth / toxicity control in uninfected T4 lymphocytes (CEM), XTT-formazan; type: cell-based; conditions: Homo sapiens, CCRF-CEM; for IC50: 144 h, uninfected CEM cells, 6 days, XTT, approximate values, read-out: IC50 (50% inhibitory concentration for cell growth); for activity at 200 µM: dose 2.00 × 10^-4 Molar; for activity at 200 µM / activity at 20 µM / activity at 2 µM / activity at 0.2 µM / activity at 63.2 µM / activity at 6.33 µM / activity at 0.634 µM / activity at 0.0635 µM: read-out: Percent of Control, Uninfected; for activity at 20 µM: dose 2.00 × 10^-5 Molar; for activity at 2 µM: dose 2.00 × 10^-6 Molar; for activity at 0.2 µM: dose 2.00 × 10^-7 Molar; for activity at 63.2 µM: dose 6.32 × 10^-5 Molar; for activity at 6.33 µM: dose 6.33 × 10^-6 Molar; for activity at 0.634 µM: dose 6.34 × 10^-7 Molar; for activity at 0.0635 µM: dose 6.35 × 10^-8 Molar
From the text: as §1, §2

[3] = read-out: Percent of Protection

Row | Compound | EC50 [1] [µM] | inhibition at 200 µM [1, 3] [%] | inhibition at 2 µM [1, 3] [%] | inhibition at 0.2 µM [1, 3] [%] | inhibition at 0.634 µM [1, 3] [%] | inhibition at 0.0635 µM [1, 3] [%] | activity at 200 µM [1] [%] | activity at 20 µM ([1]; dose 2.00 × 10^-5 Molar) [%] | activity at 2 µM [1] [%] | activity at 0.2 µM [1] [%] | activity at 63.2 µM ([1]; dose 6.32 × 10^-5 Molar) [%] | activity at 6.33 µM ([1]; dose 6.33 × 10^-6 Molar) [%] | activity at 0.634 µM [1] [%] | activity at 0.0635 µM [1] [%] | TI50 (IC/EC), Therapeutic Index [1] | IC50 [2] [µM] | activity at 200 µM [2] [%] | activity at 20 µM [2] [%] | activity at 2 µM [2] [%] | activity at 0.2 µM [2] [%] | also measured
1 | CNc1ccc(S(=O)(=O)c2ccccc2[N+](=O)[O-])cc1Cl [Compound 77, 4-(2-nitrophenylsulfonyl)-2-chloro-N-methylaniline] | 0.119 | 100 | 100 | 82 | 89.8 | 12.3 | 100 | 96.8 | 100 | 82.9 | 106 | 99.5 | 90.3 | 16.7 | > 1.69 × 10^+3 | > 200 | 111 | 89.7 | 110 | 106 | inhibition at 20 µM ([1]; dose 2.00 × 10^-5 Molar, read-out: Percent of Protection): 96.7%; inhibition at 63.2 µM ([1]; dose 6.32 × 10^-5 Molar, read-out: Percent of Protection): 106%; inhibition at 6.33 µM ([1]; dose 6.33 × 10^-6 Molar, read-out: Percent of Protection): 99.5%; activity at 63.2 µM [2]: 95.2%; activity at 6.33 µM [2]: 100%; activity at 0.634 µM [2]: 107%; activity at 0.0635 µM [2]: 111%
2 | CN(c1ccccc1Cl)S(=O)(=O)c1ccccc1[N+](=O)[O-] [Compound 38, N-(2-nitrophenylsulfonyl)-2chloro-N-methylaniline] | 4.38 | 2.73 | 10.4 | 2.73 | -0.31 | -0.27 | 28.4 | 63.8 | 14.9 | 7.25 | 26.1 | 70.6 | 4.71 | 4.74 | 7.79 × 10^0 | 34.1 | 3.62 | 75.7 | 98.2 | 99.3 | inhibition at 20 µM ([1]; read-out: Percent of Protection, dose 2.00 × 10^-5 Molar): 61.9%; inhibition at 63.2 µM ([1]; read-out: Percent of Protection, dose 6.32 × 10^-5 Molar): -0.27%; inhibition at 6.33 µM ([1]; read-out: Percent of Protection, dose 6.33 × 10^-6 Molar): 69%; activity at 63.2 µM [2]: 20.3%; activity at 6.33 µM [2]: 94.2%; activity at 0.634 µM [2]: 98.6%; activity at 0.0635 µM [2]: 101%
